Source: PMC10247784, “Physiological activation of human and mouse bitter taste receptors by bile acids” (Communications Biology, 2023)

Target: T1, mouse Tas2r117 (Mus musculus, UniProt Q7M715)
T1 construct: expressed in transfected cells; host or cells: HEK293T-Gα16gust44
T1 sequence (Q7M715 1-330): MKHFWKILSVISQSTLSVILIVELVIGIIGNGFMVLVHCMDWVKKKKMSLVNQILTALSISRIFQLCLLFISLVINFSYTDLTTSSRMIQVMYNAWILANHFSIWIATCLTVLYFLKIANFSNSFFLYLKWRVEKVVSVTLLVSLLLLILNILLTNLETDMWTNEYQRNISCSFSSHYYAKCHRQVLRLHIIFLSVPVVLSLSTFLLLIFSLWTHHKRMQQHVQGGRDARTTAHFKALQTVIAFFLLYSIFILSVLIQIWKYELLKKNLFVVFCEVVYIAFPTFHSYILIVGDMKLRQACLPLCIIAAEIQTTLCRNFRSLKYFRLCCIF
Experiment: Calcium imaging assay (FLIPR), HEK293T-Gα16gust44 cells transfected with mouse Tas2r117
Format: cell-based
Settings: for Δ F/F: Tas2r117; for RLU: sheet Tas2r117, time trace
Description: This set of bile acids was chosen because of their commercial availability in high purities, their diversity within the class of bile acids and their previous detection and quantitation in human blood. Stock solutions were prepared in DMSO.
As basal growth medium for the HEK293T-Gα16gust44 cell line[17],[59] served Dulbecco’s modified eagle medium (DMEM) (Thermo Fisher Scientific, Darmstadt, Germany) supplemented with 10 % fetal bovine serum (Sigma-Aldrich, Steinheim, Germany), 2 mM L-glutamine (Sigma-Aldrich, Steinheim, Germany), 100 units/ml penicillin (Sigma Aldrich, Steinheim, Germany) and 100 µg/ml streptomycin (Sigma Aldrich, Steinheim, Germany). Growth conditions were 37 °C, 5 % CO2 and saturated air-humidity[60].
HEK293T-Gα16gust44 cells were seeded on poly-D-lysine (10 µg/ml) coated 96-well plates to reach a confluence of 40-60 % the next day. For transient transfection 150 ng of plasmid DNA containing the receptor of interest and 0.3 µl lipofectamine 2000 (Thermo Fisher Scientific, Darmstadt, Germany) per well were used and transfection took place according to the manual of lipofectamine 2000. […] The empty vector DNA (mock) was transfected as negative control[14],[41].
Cells were loaded using the calcium-sensitive fluorescent dye Fluo-4-AM (Abcam, Cambridge, Great Britain) in the presence of 2.5 mM probenecid (Sigma-Aldrich, Steinheim, Germany) the day after transfection[13],[41]. 1 h after loading, cells were washed with C1 buffer using a BioTek Cell Washer, incubated in the dark for half an hour and washed again. For automated agonist application and measurement of fluorescence changes, a FLIPR^TETRA device (Molecular Devices, San José, United States) was used. Viability of cells was tested by application of 100 nM Somatostatin 14 (Bachem, Bubendorf, Switzerland)[42].
Measured data were negative control corrected by subtracting the signal of the mock-transfected cells and exported to Microsoft Excel using the FLIPR software ScreenWorks 4.2. In Microsoft Excel software, standardization of maximum fluorescence intensities to the basal fluorescence and normalization to the buffer-only control was done to calculate the relative fluorescence changes (ΔF/F).
Initial screening experiments performed in duplicate wells were confirmed by at least one replication and representative traces were selected for display. All dose-response relationships were determined by three independent experiments (biological replicates) performed in duplicates (technical replicates). Threshold concentrations, defined as lowest substance concentrations leading to statistically significant elevated fluorescence changes in receptor-transfected cells compared with empty vector-transfected cells, were determined using SigmaPlot with Student’s t-test to evaluate statistical significance (p < 0.01).

With `C[C@H](CCC(=O)NCCS(=O)(=O)O)[C@H]1CC[C@H]2[C@@H]3[C@H](O)C[C@@H]4C[C@H](O)CC[C@]4(C)[C@H]3C[C@H](O)[C@]12C` [Taurocholic Acid, taurocholic acid] the EC50 was 37.4 ± 7.3 µM, the “Δ F/F” value (conc. 0,01 mM) was 0.02164 and the “Δ F/F” value (conc. 0,1 mM) was 0.0925. For the same molecule, the “Δ F/F” value (conc. 0,03 mM) was 0.05976, the “Δ F/F” value (conc. 0,3 mM) was 0.1209 and the “Δ F/F” value (conc. 0,0003 mM) was -0.001001. The “Δ F/F” value (conc. 0,001 mM) was -0.004431, the “Δ F/F” value (conc. 0,003 mM) was 0.00222 and the RLU (Time (s) 0) was 0 RLU. The RLU (Time (s) 2) was 37 RLU, the RLU (Time (s) 4) was -4.077 RLU and the RLU (Time (s) 6) was 12.5668 RLU. It also gave an RLU (Time (s) 8) of 5.638 RLU, an RLU (Time (s) 12) of -15.6594 RLU and an RLU (Time (s) 14) of 17.1601 RLU. For the same molecule, the RLU (Time (s) 16) was -10.5322 RLU, the RLU (Time (s) 18) was -8.953 RLU and the RLU (Time (s) 18.797) was 34.4566 RLU. The RLU (Time (s) 20.797) was 16.7527 RLU, the RLU (Time (s) 22.797) was -7.054 RLU and the RLU (Time (s) 24.797) was 38.2926 RLU. It also gave an RLU (Time (s) 26.797) of 125.403 RLU, an RLU (Time (s) 28.797) of 141.128 RLU and an RLU (Time (s) 30.797) of 183.922 RLU. It also gave an RLU (Time (s) 32.797) of 250.112 RLU, an RLU (Time (s) 34.797) of 267.824 RLU and an RLU (Time (s) 36.797) of 315.731 RLU. The RLU (Time (s) 38.797) was 324.81 RLU, the RLU (Time (s) 40.797) was 359.212 RLU and the RLU (Time (s) 42.797) was 402.392 RLU. It also gave an RLU (Time (s) 44.797) of 440.644 RLU, an RLU (Time (s) 46.797) of 454.758 RLU and an RLU (Time (s) 48.797) of 463.447 RLU. For the same molecule, the RLU (Time (s) 50.797) was 471.258 RLU, the RLU (Time (s) 52.797) was 487.155 RLU and the RLU (Time (s) 54.797) was 505.642 RLU. It also gave an RLU (Time (s) 56.797) of 516.341 RLU, an RLU (Time (s) 58.797) of 527.833 RLU and an RLU (Time (s) 60.797) of 539.947 RLU. It also gave an RLU (Time (s) 62.797) of 536.466 RLU, an RLU (Time (s) 64.797) of 575.129 RLU and an RLU (Time (s) 66.797) of 570.621 RLU. The RLU (Time (s) 68.797) was 568.562 RLU, the RLU (Time (s) 70.797) was 591.97 RLU and the RLU (Time (s) 72.797) was 606.798 RLU. The RLU (Time (s) 74.797) was 593.706 RLU, the RLU (Time (s) 76.797) was 614.892 RLU and the RLU (Time (s) 78.797) was 632.141 RLU. The RLU (Time (s) 80.797) was 632.141 RLU, the RLU (Time (s) 82.797) was 632.241 RLU and the RLU (Time (s) 84.797) was 611.445 RLU. The RLU (Time (s) 86.797) was 626.947 RLU, the RLU (Time (s) 88.797) was 643.242 RLU and the RLU (Time (s) 90.797) was 605.466 RLU. The RLU (Time (s) 92.797) was 611.522 RLU, the RLU (Time (s) 94.797) was 620.11 RLU and the RLU (Time (s) 96.797) was 645.547 RLU. For the same molecule, the RLU (Time (s) 98.797) was 644.046 RLU, the RLU (Time (s) 100.797) was 637.565 RLU and the RLU (Time (s) 102.797) was 626.02 RLU. For the same molecule, the RLU (Time (s) 104.797) was 634.671 RLU, the RLU (Time (s) 106.797) was 616.97 RLU and the RLU (Time (s) 108.797) was 624.712 RLU. The RLU (Time (s) 110.797) was 625.807 RLU, the RLU (Time (s) 112.797) was 626.586 RLU and the RLU (Time (s) 114.797) was 603.263 RLU. It also gave an RLU (Time (s) 116.797) of 606.551 RLU, an RLU (Time (s) 118.797) of 596.327 RLU and an RLU (Time (s) 120.797) of 576.654 RLU. It also gave an RLU (Time (s) 122.797) of 563.677 RLU, an RLU (Time (s) 124.797) of 585.101 RLU and an RLU (Time (s) 126.797) of 566.056 RLU. For the same molecule, the RLU (Time (s) 128.797) was 584.636 RLU, the RLU (Time (s) 130.797) was 552.659 RLU and the RLU (Time (s) 132.797) was 568.02 RLU. The RLU (Time (s) 134.797) was 561.297 RLU, the RLU (Time (s) 136.797) was 551.223 RLU and the RLU (Time (s) 137.562) was 556.479 RLU. For the same molecule, the RLU (Time (s) 143.578) was 502.769 RLU, the RLU (Time (s) 149.578) was 498.126 RLU and the RLU (Time (s) 155.578) was 490.146 RLU. It also gave an RLU (Time (s) 161.578) of 459.867 RLU, an RLU (Time (s) 167.578) of 446.745 RLU and an RLU (Time (s) 173.578) of 415.03 RLU. The RLU (Time (s) 179.578) was 413.791 RLU, the RLU (Time (s) 191.578) was 382.098 RLU and the RLU (Time (s) 197.578) was 382.449 RLU. For the same molecule, the RLU (Time (s) 209.578) was 344.754 RLU, the RLU (Time (s) 221.578) was 256.376 RLU and the RLU (Time (s) 233.578) was 235.774 RLU. It also gave an RLU (Time (s) 239.578) of 212.664 RLU, an RLU (Time (s) 245.578) of 220.667 RLU and an RLU (Time (s) 293.578) of 147.781 RLU. The RLU (Time (s) 299.578) was 155.364 RLU, the RLU (Time (s) 305.578) was 177.719 RLU and the RLU (Time (s) 311.578) was 178.93 RLU. The RLU (Time (s) 317.578) was 167.01 RLU, the RLU (Time (s) 323.578) was 136.818 RLU and the RLU (Time (s) 329.578) was 148.504 RLU. The RLU (Time (s) 335.578) was 153.255 RLU, the RLU (Time (s) 341.578) was 110.601 RLU and the RLU (Time (s) 347.578) was 112.243 RLU. The RLU (Time (s) 353.578) was 94.0464 RLU, the RLU (Time (s) 359.578) was 105.186 RLU and the “Activation threshold concentration Tas2r117” value (p < 0.01 vs empty vector) was 30 µM.
